From patent publication US8263632B2, “Aminopyridine derivatives having Aurora A selective inhibitory action” (Vertex Pharmaceuticals Incoporated, priority 2009, dated 2012)
Where two headings read alike, the source gives them in different places.

What was measured:
Aurora A = molecular target: T1, Aurora A (Homo sapiens, UniProt O14965); assay: Aurora A inhibitory action (33P-ATP kinase assay, Kemptide substrate); assay type: biochemical
T1 construct: histidine tag (N); made in house; host or cells: Escherichia coli BL21-CodonPlus(DE3)-RIL
T1 sequence (O14965 1-403): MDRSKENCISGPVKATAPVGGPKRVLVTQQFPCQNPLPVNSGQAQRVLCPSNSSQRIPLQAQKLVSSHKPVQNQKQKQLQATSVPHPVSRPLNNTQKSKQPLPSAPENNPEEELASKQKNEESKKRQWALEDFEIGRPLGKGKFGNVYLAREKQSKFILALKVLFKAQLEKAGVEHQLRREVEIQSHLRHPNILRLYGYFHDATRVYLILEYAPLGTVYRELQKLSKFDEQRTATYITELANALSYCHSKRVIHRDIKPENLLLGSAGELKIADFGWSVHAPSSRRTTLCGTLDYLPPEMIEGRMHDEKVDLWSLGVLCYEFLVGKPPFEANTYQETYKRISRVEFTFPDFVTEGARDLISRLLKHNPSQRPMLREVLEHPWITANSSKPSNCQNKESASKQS
Experimental: (§1) The Escherichia coli cells were recovered and solubilized, and then the histidine-tagged Aurora A protein was adsorbed onto a nickel chelate column and eluted from the column with imidazole. The active fraction was desalted with a desalting column to give a pure enzyme.
Then, 10 μL of 350 mM phosphate buffer was added to the reaction system to stop the reaction. The substrate peptide was adsorbed on a P81 paper filter 96-well plate and then washed with 130 mM phosphate buffer for several times. The radiation activity of the peptide was measured with a liquid scintillation counter. The [γ-^33P] labeled ATP was purchased from Amersham Biosciences Co., Ltd.

Aurora B = molecular target: T2, Aurora B (Homo sapiens, UniProt Q96GD4); assay: Aurora B inhibitory action (33P-ATP kinase assay, Kemptide substrate); assay type: biochemical; settings: 100 μM unlabeled ATP, 100 μM substrate peptide, 30° C. for 20 minutes
T2 construct: histidine tag (N); made in house; host or cells: Escherichia coli BL21-CodonPlus(DE3)-RIL
From the text: Aurora B Inhibitory Action
(1) Purification of Aurora B
as §1, with “cDNA of Aurora B having histidine tag fused at the amino terminal was integrated into an expression vector, which was then highly expressed in Escherichia coli BL21-CodonPlus(DE3)-RIL cells. The Escherichia” for “The Escherichia”
(2) Measurement of activity of Aurora B
For measurement of the activity of Aurora B, the substrate used was Kemptide (Leu-Arg-Arg-Ala-Ser-Leu-Gly) (SEQ. ID. NO.: 1), a synthetic peptide purchased from Sigma-Aldrich, Inc. [Certificate of analysis (Upstate, Inc.)].
Reaction was conducted by a partial modification of the method of activity measurement for Aurora A. The amount of the reaction liquid was 21.1 μL, and the composition of the reaction buffer (R2 buffer) was 50 mM Tris-hydrochloride buffer (pH 7.4)/15 mM magnesium acetate/0.2 mM ethylenediamine-N,N,N′,N′-tetraacetate (EDTA). To this, purified Aurora B, 100 μM of a substrate peptide, 100 μM of unlabeled adenosine triphosphate (ATP) and 1 μCi of [γ-^33P] labeled ATP (2,500 Ci/mmole or more) were added, and the mixture was reacted at 30° C. for 20 minutes. Then, 10 μL of 350 mM phosphate buffer was added to the reaction system to stop the reaction. The substrate peptide was adsorbed on a P81 paper filter 96-well plate and then washed with 130 mM phosphate buffer for several times. The radiation activity of the peptide was measured with a liquid scintillation counter. The [γ-^33P] labeled ATP was purchased from Amersham Biosciences Co., Ltd.

[1] = 20 μM unlabeled ATP, 100 μM substrate peptide, 30° C. for 20 minutes, read-out: Inhibitory activity for Aurora A (IC50)

T2 sequence (Q96GD4 whole entry): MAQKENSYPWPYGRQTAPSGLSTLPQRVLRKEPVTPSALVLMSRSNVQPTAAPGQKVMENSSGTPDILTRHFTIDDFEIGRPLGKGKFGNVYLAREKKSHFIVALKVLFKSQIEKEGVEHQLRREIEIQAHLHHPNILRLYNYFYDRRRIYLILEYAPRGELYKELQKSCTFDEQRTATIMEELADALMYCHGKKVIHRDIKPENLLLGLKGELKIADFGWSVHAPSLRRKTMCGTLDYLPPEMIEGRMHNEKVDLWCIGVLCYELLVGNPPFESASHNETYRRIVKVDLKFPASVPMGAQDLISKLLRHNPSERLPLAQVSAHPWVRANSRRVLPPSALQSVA

IC50 (Aurora A)	IC50 (Aurora B)	SMILES	IC50 (Aurora A; [1])
2.3 nM	730 nM	CO[C@@]12CCN(C(=O)O[C@@H](C)C(F)(F)F)[C@@H]1CN(c1nc(C)cc(Nc3cc[nH]n3)n1)C2 [Example 1, (2S)-1,1,1-trifluoropropan-2-yl (3aR,6aR)-3a-metboxy-5-[4-methyl-6-(1H-pyrazol-3-ylamino)pyrimidin-2-yl]hexahydropyrrolo[3,4-b]pyrrole-1(2H)-carboxylate]	
	85 nM	Cc1cc(Nc2cc[nH]n2)nc(N2C[C@@H]3[C@@H](C2)OCCN3C(=O)O[C@@H](C)C(F)(F)F)n1 [Example 2, (2S)-1,1,1-trifluoropropan-2-yl (4aR,7aR)-6-[4-methyl-6-(1H-pyrazol-3-ylamino)pyrimidin-2-yl]hexahydropyrrolo[3,4-b][1,4]oxazine-4(4aH)-carboxylate]	1.3 nM

SMILES	IC50 (Aurora A)	IC50 (Aurora B)	IC50 (Aurora A; [1])
Cc1cc(Nc2cc[nH]n2)nc(N2C[C@@H]3[C@@H](C2)OCCN3C(=O)OC(C)(C)C(F)(F)F)n1 [Example 3, 1,1,1-trifluoro-2-methylpropan-2-yl (4aR,7aR)-6-[4-methyl-6-(1H-pyrazol-3-ylamino)pyrimidin-2-yl]hexahydropyrrolo[3,4-b][1,4]oxazine-4(4aH)-carboxylate]		870 nM	5.4 nM
